Results published in patent publication US20070134261A1, “Effectors of innate immunity” (priority 2001, published 2007).
“And” between values parts separate entries of the source, which are not always exact repeats. Identical values can stand only once.

Test system: human A549 epithelial cells
Assay: Resgen Human cDNA arrays (PRHU03-S3) of A549 cells treated with peptide (Tables 21-26)
Settings: 50 μg/ml, 4 h

Compound: CC[C@H](C)[C@H](N)C(=O)N[C@@H](CC(C)C)C(=O)N1CCC[C@H]1C(=O)N[C@@H](Cc1c[nH]c2ccccc12)C(=O)N[C@@H](CCCCN)C(=O)N[C@@H](Cc1c[nH]c2ccccc12)C(=O)N1CCC[C@H]1C(=O)N[C@@H](Cc1c[nH]c2ccccc12)C(=O)N[C@@H](Cc1c[nH]c2ccccc12)C(=O)N1CCC[C@H]1C(=O)N[C@@H](Cc1c[nH]c2ccccc12)C(=O)N[C@@H](CCCNC(=N)N)C(=O)N[C@@H](CCCNC(=N)N)C(N)=O [SEQ ID NO: 2]
- Ratio Peptide:Unstimulated, small inducible cytokine subfamily A (Cys—Cys), member 20 (AI285199): 0.19
- Ratio Peptide:Unstimulated, TLR 1 (AI339155): 0.35
- Ratio Peptide:Unstimulated, disintegrin-like and metalloprotease with thrombospondin type 1 motif, 5 (AI375048): 0.39
- Ratio Peptide:Unstimulated, killer cell lectin-like receptor subfamily G, member 1 (AI433079): 2.3
- Ratio Peptide:Unstimulated, apoptosis antagonizing transcription factor (AI439571): 0.28
- Ratio Peptide:Unstimulated, T-cell receptor interacting molecule (AI453185): 0.41
- Ratio Peptide:Unstimulated, TGFB inducible early growth response 2 (AI473938, listed as ID 2): 2.4 and 2.38
- Ratio Peptide:Unstimulated, MAP kinase kinase kinase 1 (AI538525): 0.61
- Ratio Peptide:Unstimulated, protocadherin 12 (AI652584): 14.8
- Ratio Peptide:Unstimulated, protein tyrosine phosphatase, non-receptor type 18 (AI668897): 3.2
- Ratio Peptide:Unstimulated, Fc fragment of IgE, high affinity I, receptor for; alpha polypeptide (AI676097): 0.43
- Ratio Peptide:Unstimulated, G protein-coupled receptor 4 (AI719098): 3.7
- Ratio Peptide:Unstimulated, peroxisome proliferative activated receptor, alpha (AI739498): 0.38
- Ratio Peptide:Unstimulated, cadherin 12, type 2 (N-cadherin 2) (AI740827): 13
- Ratio Peptide:Unstimulated, complement component C1q receptor (AI761788): 0.46
- Ratio Peptide:Unstimulated, small inducible cytokine subfamily B (Cys-X-Cys), member 6 (granulocyte chemotactic protein 2) (AI889554): 0.11
- Ratio Peptide:Unstimulated, small inducible cytokine subfamily A (Cys—Cys), member 21 (AI922341): 3.9
- Ratio Peptide:Unstimulated, protein tyrosine phosphatase, receptor type, H (AI924306): 0.11
- Ratio Peptide:Unstimulated, tyrosine kinase, non-receptor, 1 (AI936324): 7.8
- Ratio Peptide:Unstimulated, MAP kinase 12 (AI936909): 2.1
- Ratio Peptide:Unstimulated, G protein-coupled receptor 17 (AI953187): 0.32
- Ratio Peptide:Unstimulated, apoptosis inhibitor 5 (AI972925): 2.8
- Ratio Peptide:Unstimulated, IL-17 R (AW029299): 2.1
- Ratio Peptide:Unstimulated, MAP kinase kinase kinase 6 (AW084649): 0.37
- Ratio Peptide:Unstimulated (C-type lectin-like receptor-2 (H70491)): 2.09
- Ratio Peptide:Unstimulated (CCR6 (N57964)): 4.51
- Ratio Peptide:Unstimulated (CD31 (PECAM) (R22412)): 2.71
- Ratio Peptide:Unstimulated, selectin L (lymphocyte adhesion molecule 1) (H00662): 0.03
- Ratio Peptide:Unstimulated, MAP kinase kinase kinase 10 (H01340): 1.23
- Ratio Peptide:Unstimulated, protein tyrosine phosphatase, non-receptor type 21 (H03504): 0.94
- Ratio Peptide:Unstimulated, MAP kinase kinase 6 (H07920, listed as ID 2): 18 and 17.83
- Ratio Peptide:Unstimulated, disintegrin and metalloproteinase domain 23 (H11006): 1.9
- Ratio Peptide:Unstimulated, vascular cell adhesion molecule 1 (H16591): 0.20
- Ratio Peptide:Unstimulated, leukocyte immunoglobulin-like receptor, subfamily B (H54023): 0.35
- Ratio Peptide:Unstimulated, disintegrin and metalloproteinase domain 9 (H59231): 1.1
- Ratio Peptide:Unstimulated, TGF beta receptor III (H62473): 0.91
- Ratio Peptide:Unstimulated, regulator of G-protein signaling 13 (H70047): 0.54
- Ratio Peptide:Unstimulated, C-type lectin-like receptor-2 (H70491): 2.1
- Ratio Peptide:Unstimulated, vasoactive intestinal peptide receptor 1 (H73241): 0.43
- Ratio Peptide:Unstimulated, protein tyrosine phosphatase, receptor type, C (H74265): 0.44
- Ratio Peptide:Unstimulated, protein tyrosine phosphatase, receptor type, A (H82419): 4.0
- Ratio Peptide:Unstimulated, G protein-coupled receptor 75 (H84878): 5.2
- Ratio Peptide:Unstimulated, cadherin 1, type 1, E-cadherin epithelial (H97778): 8.1
- Ratio Peptide:Unstimulated, TNF R superfamily, member 5 (CD40LR) (H98636, listed as ID 2): 3.0 and 2.98
- Ratio Peptide:Unstimulated (IL-11 Rα (AA454657)): 2.39
- Ratio Peptide:Unstimulated (IL-17 R (AW029299)): 2.05
- Ratio Peptide:Unstimulated (MAP kinase 9 (AA157286)): 0.57
- Ratio Peptide:Unstimulated, TLR 7 (N30597): 0.13
- Ratio Peptide:Unstimulated, CD36 (N39161): 8.2
- Ratio Peptide:Unstimulated, TLR 5 (N41021): 0.12
- Ratio Peptide:Unstimulated, protein tyrosine phosphatase, receptor type, f polypeptide (PTPRF), interacting protein (liprin), α1 (N49751): 0.43
- Ratio Peptide:Unstimulated, IL-2 receptor, gamma (severe combined immunodeficiency) (N54821): 0.30
- Ratio Peptide:Unstimulated, adenosine A2a R (N57553): 3.1
- Ratio Peptide:Unstimulated, CCR6 (N57964): 4.5
- Ratio Peptide:Unstimulated, G protein-coupled receptor 55 (N58443): 19
- Ratio Peptide:Unstimulated, G protein-coupled receptor 85 (N62306): 6.8
- Ratio Peptide:Unstimulated, leukocyte immunoglobulin-like receptor, subfamily A (N63398): 0.44
- Ratio Peptide:Unstimulated, receptor tyrosine kinase-like orphan receptor 2 (N94921): 7.3
- Ratio Peptide:Unstimulated, CD31 (R22412): 2.7
- Ratio Peptide:Unstimulated, IK cytokine, down-regulator of HLA II (R39227, listed as ID 2): 3.1 and 3.11
- Ratio Peptide:Unstimulated, cell adhesion molecule (R40400): 4.0
- Ratio Peptide:Unstimulated, cadherin 13, H-cadherin (heart) (R41787): 0.37
- Ratio Peptide:Unstimulated, diphtheria toxin receptor (heparin-binding epidermal growth factor-like growth factor) (R45640): 0.49
- Ratio Peptide:Unstimulated, protein tyrosine phosphatase, receptor type, T (R52794): 1.2
- Ratio Peptide:Unstimulated, PDGF R beta polypeptide (R56211): 2.5
- Ratio Peptide:Unstimulated, interleukin enhancer binding factor 1 (R56553): 2.7
- Ratio Peptide:Unstimulated, Fc fragment of IgG, low affinity IIb, receptor for (CD32) (R68106): 0.27
- Ratio Peptide:Unstimulated, MAP kinase kinase kinase 11 (R80779): 0.65
- Ratio Peptide:Unstimulated, protocadherin gamma subfamily C, 3 (R89615): 3.0
- Ratio Peptide:Unstimulated, G protein-coupled receptor (R91916): 1.84
- Ratio Peptide:Unstimulated, TNF receptor-associated factor 2 (T55353): 1.22
- Ratio Peptide:Unstimulated, TLR 2 (T57791): 0.52
- Ratio Peptide:Unstimulated, caspase 1, apoptosis-related cysteine protease (interleukin 1, beta, convertase) (T95052): 0.44
- Ratio Peptide:Unstimulated, BMP R type IA (W15390): 1.9
- Ratio Peptide:Unstimulated, caspase 6, apoptosis-related cysteine protease (W45688): 0.7
- Ratio Peptide:Unstimulated, MAP kinase kinase kinase 8 (W56266): 1.52
- Ratio Peptide:Unstimulated, integrin, beta 8 (W56754): 0.10
- Ratio Peptide:Unstimulated, MAP kinase kinase kinase 14 (W61116): 0.34
- Ratio Peptide:Unstimulated, integrin, beta 1 (W67174): 2.1
- Ratio Peptide:Unstimulated, MAP kinase-activated protein kinase 3 (W68281, listed as ID 2): 2.1 and 2.13
- Ratio Peptide:Unstimulated, MAP kinase kinase 5 (W69649): 3.0
- Ratio Peptide:Unstimulated, TNF receptor superfamily, member 12 (W71984): 0.59
- Ratio Peptide:Unstimulated, killer cell lectin-like receptor subfamily C, member 3 (W93370): 3.2
- Ratio Peptide:Unstimulated, Mouse Mammary Turmor Virus Receptor homolog (W93891): 6.9
- Ratio Peptide:Unstimulated (integrin, alpha 2 (CD49B) (AA463257)): 0.89
- Ratio Peptide:Unstimulated (integrin, alpha 3 (antigen CD49C) (AA424695)): 0.79
- Ratio Peptide:Unstimulated (integrin, alpha E (AA425451)): 179.33
- Ratio Peptide:Unstimulated (integrin, beta 4 (AA485668)): 0.79
- Ratio Peptide:Unstimulated (small inducible cytokine subfamily A, member 21 (AI922341)): 3.88
